According to patent US20230381170A1, “METHOD FOR TREATING ALS/FTD THROUGH DEGRADATION OF RNA REPEAT EXPANSION” (University of Florida Research Foundation, Incorporated, priority 2020, published 2023):
Like-named read-outs stand apart in the source and are kept apart here.

Columns and labels:
(G4C2)66-No ATG-GFP mRNA = assay: Polysome profiling in HEK293T cells; type: cell-based, human; details: 200 nM
Protocol: Polysome Profiling. Polysome profiling studies were completed similarly to previously described methods (12, 30) Yang et al., 2015). Briefly, 100 mm dishes were plated with ˜3.5×10^6 HEK293T cells and batch-transfected for 5 h with 2.5 μg (G4C2)66-No ATG-GFP using Lipofectamine 3000 reagent according to manufacturer protocol. Then, cells were collected and plated overnight in 100 mm dishes with ˜2.5×10^6 HEK293T cells and treated with vehicle (DMSO, 0.5% final concentration) or 3 (200 nM). Upon 24 h treatment, cells were treated with cycloheximide (CHX, 0.1 mg/mL) and incubated for 5 min at 37° C. The medium was removed, and cells were washed by 2×7.5 mL ice cold DPBS supplemented with 0.1 mg/mL CHX. Cells were then lysed with 250 μL of ice-cold Cell Lysis Buffer [10 mM NaCl, 10 mM MgCl2, 10 mM Tris, pH 7.5, 1% Triton X-100, 1% sodium deoxycholate, 1 mM DTT supplemented with […] cycloheximide, and 0.2 U/μL RNAsin (Promega)]. The lysate obtained from 3×100 mm dishes were combined (˜500 μL final volume) and transferred to an Eppendorf tube, passed through a 21G needle several times and centrifuged for 5 min at 13,200 rpm and 4° C. The supernatant was transferred to a new tube and stored at −80° C. until further use. Cell lysates were then loaded on 10-50% sucrose gradients (prepared in 20 mM HEPES, pH 7.4, 100 mM KCl, 5 mM MgCl2, 3 mM DTT, and 0.1 mg/mL CHX) and separated at 40000 rpm for 2 h at 4° C. […] The levels of (G4C2)66-No ATG-GFP mRNA in each fraction were measured by qPCR as described above with primers specific for GFP (non-canonical translation), GAPDH, respectively (canonical translation) (Table 1). Data from vehicle- and compound-treated samples were normalized as follows: triplicate Ct values were averaged and ΔCt values were calculated; ΔΔCt values were afforded by comparing treated to untreated ΔCt values. […]

Human Topoisomerase II = molecular target: T1, Human Topoisomerase II (Homo sapiens, UniProt P11388); assay: Topoisomerase assay; type: biochemical
T1 construct: purchased TopoGen
Protocol: Topoisomerase Assay. Topoisomerase inhibition was assessed in vitro using the TopoGen Human Topoisomerase II Assay Kit per manufacturer's recommended protocol. Samples were run on a 1% agarose gel post-stained with ethidium bromide. Topoisomerase inhibition was quantified as a percentage of linearized DNA compared to the positive control compound VP-16 supplied.

r(G4C2)8 = assay: Biolayer interferometry (BLI) binding
Protocol: Biolayer Interferometry (BLI). BLI studies were performed similarly as previously described (12) using an Octet RED96. Briefly, 5′-biotinylated nucleic acids were folded by heating at 95° C. for 4 min in 10 mM sodium phosphate buffer, pH 7, followed by slowly cooling to room temperature. Then, to the folded RNA were added the following components: 1.386 mL 1×DPBS (21-031-CV, Corning), 180 μL freshly prepared 1% (w/v) BSA, 36 μL 1% (v/v) Tween-20, and 18 μL DMSO (1% final concentration) in a final volume of 1.8 mL. The final concentration of RNA was 0.5 μM. Separately, serial dilutions of the compound of interest were prepared in the same buffer.
The resulting curves were analyzed and processed using Octet Data Analysis software version 9.1 by subtracting the response of the sensors recorded upon incubation with solutions containing compound and no RNA (parallel reference). The data were then fitted assuming reversible binding using the entire time interval for association and dissociation using either 1:1 or the 2:1 heterogeneous binding curve fitting model. The reported Kd,n, kon,n and koff,n values represent the average of two independent experiments.

T1 sequence (P11388 whole entry): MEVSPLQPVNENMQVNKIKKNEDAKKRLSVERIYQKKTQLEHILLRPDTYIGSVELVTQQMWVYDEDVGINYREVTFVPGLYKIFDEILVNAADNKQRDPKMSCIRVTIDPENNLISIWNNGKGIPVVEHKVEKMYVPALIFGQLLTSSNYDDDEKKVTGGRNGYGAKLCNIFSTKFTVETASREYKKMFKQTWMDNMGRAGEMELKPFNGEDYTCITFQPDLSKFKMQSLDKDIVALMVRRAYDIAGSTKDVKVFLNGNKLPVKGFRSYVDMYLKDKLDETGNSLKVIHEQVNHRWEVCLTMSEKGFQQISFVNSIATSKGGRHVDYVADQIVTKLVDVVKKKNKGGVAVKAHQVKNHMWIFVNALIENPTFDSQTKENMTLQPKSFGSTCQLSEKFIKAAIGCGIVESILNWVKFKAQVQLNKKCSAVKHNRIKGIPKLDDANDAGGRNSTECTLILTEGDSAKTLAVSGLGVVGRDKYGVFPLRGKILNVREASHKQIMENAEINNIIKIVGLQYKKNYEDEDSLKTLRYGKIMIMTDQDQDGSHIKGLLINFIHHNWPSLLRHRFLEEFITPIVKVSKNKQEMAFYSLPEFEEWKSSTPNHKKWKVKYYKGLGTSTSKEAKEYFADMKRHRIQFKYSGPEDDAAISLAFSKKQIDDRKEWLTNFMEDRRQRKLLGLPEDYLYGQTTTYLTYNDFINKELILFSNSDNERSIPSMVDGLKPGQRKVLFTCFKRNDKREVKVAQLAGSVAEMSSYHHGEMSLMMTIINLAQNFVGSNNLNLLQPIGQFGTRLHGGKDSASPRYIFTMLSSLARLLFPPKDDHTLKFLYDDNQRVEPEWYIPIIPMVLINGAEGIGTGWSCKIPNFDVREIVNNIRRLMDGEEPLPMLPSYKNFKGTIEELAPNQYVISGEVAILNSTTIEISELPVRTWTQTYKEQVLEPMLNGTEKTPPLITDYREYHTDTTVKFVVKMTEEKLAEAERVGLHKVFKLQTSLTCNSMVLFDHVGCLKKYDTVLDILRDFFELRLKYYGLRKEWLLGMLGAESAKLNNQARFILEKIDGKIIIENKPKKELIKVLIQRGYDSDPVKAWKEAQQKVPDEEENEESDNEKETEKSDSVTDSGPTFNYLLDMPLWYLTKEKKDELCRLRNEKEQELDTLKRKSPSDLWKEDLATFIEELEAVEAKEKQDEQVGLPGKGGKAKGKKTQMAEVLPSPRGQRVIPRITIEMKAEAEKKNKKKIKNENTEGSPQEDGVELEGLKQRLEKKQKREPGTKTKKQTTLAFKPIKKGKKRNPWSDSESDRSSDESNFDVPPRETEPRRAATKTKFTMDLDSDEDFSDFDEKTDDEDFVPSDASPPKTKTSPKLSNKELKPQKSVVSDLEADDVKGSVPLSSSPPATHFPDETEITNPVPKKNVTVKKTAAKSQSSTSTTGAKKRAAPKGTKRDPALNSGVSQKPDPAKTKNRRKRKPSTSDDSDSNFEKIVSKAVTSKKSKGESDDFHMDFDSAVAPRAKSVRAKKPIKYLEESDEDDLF

Q: With `Cc1c2ccncc2c(C)c2c1[nH]c1ccc(OCCOCCOCCNCCOCCOCCOc3ccc4[nH]c5c(C)c6ccncc6c(C)c5c4c3)cc12` [Compound 3] as the compound, how does the “increase of transcript abundance in low-molecular-weight (LMW) fractions” value ((G4C2)66-No ATG-GFP mRNA) read?
A: Its value is 17±1%.

Q: And the “polysome loading of GAPDH (control transcript)” value ((G4C2)66-No ATG-GFP mRNA)?
A: Its value is “no effect”.

Q: And the “reduction of transcript loaded into high-molecular-weight (HMW) polysome fractions” value ((G4C2)66-No ATG-GFP mRNA)?
A: Its value is 22±2%.

Q: And the “topoisomerase activity in vitro” value (Human Topoisomerase II)?
A: Its value is “did not inhibit”.

Q: And the “dissociation rate (koff) compared to 2” value (r(G4C2)8; BLI)?
A: Its value is “slower dissociation rate”.

Q: And the Kd (r(G4C2)8; BLI, read-out: Kd)?
A: Its Kd is 0.004 ± 7e-05 µM.

Q: What about the Kd (r(G4C2)8; BLI, read-out: Kd, 2) of the same compound?
A: Its Kd is 0.9 µM.

Q: And the “bound more avidly to r(G4C2)8 than 2” value (r(G4C2)8; Kd relative to 2)?
A: The value was roughly 13 fold.
